The results in this text go back to publication PMC8151276, “An Integrated Approach toward NanoBRET Tracers for Analysis of GPCR Ligand Engagement” (Molecules, 2021).

For the test, the target named is T1, RXFP4 (Homo sapiens, UniProt Q8TDU9).
T1 construct: purchased Promega (in-house HiBiT-GPCR construct library, NanoBRET)
The test is described as follows: NanoBRET screen HiBiT-RXFP4 in HEK293. Format: binding. Here is the method: Each tracer candidate was screened across the entire library of HiBiT-GPCR constructs using NanoBRET as the detection modality. As depicted in Figure 4A, the specificity of interactions was evaluated through decrease in BRET due to competitive displacement of a bound tracer by excess parental compound. Each tracer was analyzed for binding to each HiBiT-GPCR fusion in the absence and in the presence of competing parental compound. Briefly, HEK293 cells were transfected with HiBiT-GPCR constructs diluted into promoterless DNA to reduce expression and maximize translocation to the cell surface. Each tracer candidate was then screened at concentrations of 1 μM and 0.1 μM across cells expressing these fusions. Cells were treated for 1.5 h with tracer either alone or in the presence of 20 μM competing parental compound (i.e., control). BRET was measured upon addition of purified LgBiT and subsequent complementation with HiBiT genetically fused to a GPCR. The specificity of interactions was assessed through a decrease in BRET signal due to competitive displacement of the bound tracer. To further gauge the robustness of these interactions, the fold response over the control (i.e., BRETtracer/BRETcontrol) was calculated. We chose a 1.5-fold response, which translates to ≥7-fold signal over noise as the minimal threshold required to score an interaction as positive. […]. Below we highlight the screening results obtained for our exemplary fluorescent tracers based on Clozapine, Amitriptyline and AZD1283.
HiBiT-GPCR DNA constructs were diluted in 10 mM Tris pH 8 to a final concentration of 0.01 μg/μL, arrayed in 96-well plates and stored at −20 °C. For transfection, HEK293 cells were suspended in Opti-MEM (without phenol red) supplemented with 2% fetal bovine serum (Seradigm) and 100 units/mL penicillin–streptomycin (Gibco) at a final concentration of 220,000 cells/mL and dispensed into white 96-well plates at 90 μL/well. Subsequent transfections and screens were carried using an Agilent Bravo Automated Liquid Handling Platform. First, the 96-well HiBiT DNA arrays were diluted 25-fold in Opti-MEM (without serum or phenol red) to a final concentration of 0.0004 μg/μL and 20 μL of the diluted DNAs were transferred into new 96-well plates. Next, promoterless carrier DNA (1 μg/μL) was diluted 25-fold (0.04 μg/μL) and then dispensed into the diluted arrays at 20 μL/well. Following brief mixing, Viafect transfection reagent (Promega) diluted 16-fold into Opti-MEM was dispensed into the plates at 40 μL/well. After mixing by pipetting, plates were incubated for 10 min on the pipetting station deck. The DNA-transfection reagent complexes were then added to plates containing cells. To facilitate the screen, 10 μL of DNA-transfection reagent complexes were added in duplicates to the top 4 and bottom 4 rows, resulting in two identical 48-well arrays per plate. Plates with transfected cells were incubated for 18–20 h at 37 °C/5% CO2. A screen of each tracer across the entire library using two different concentrations requires duplicate plates of transfected cells. Depending on the number of tracers being screened, transfections can be scaled up using the same ratios. The next day, for each tracer, four 20× screening solutions in tracer dilution buffer (Promega) were prepared: two duplicates at final concentration of 20 μM and two duplicates at a final concentration of 2 μM. A competing unmodified compound was added to one of each duplicate at a final concentration of 400 μM. The four resulting solutions were diluted 4-fold in Opti-MEM without serum or phenol red to generate 5× solutions (5 µM and 0.5 µM tracer +/− 100 μM competing compound). To screen the library, a BioTek MultiFlo FX liquid dispenser was used to dispense 22.5 µL of tracer solution to the top 4 rows and 22.5 µL tracer + competing compound solution to the 4 bottom rows. Plates were briefly mixed on an orbital shaker and incubated for 1.5 h at room temperature. […]
In general terms: BRET reads energy transfer from a luciferase to a nearby fluorophore.

T1 sequence (Q8TDU9 whole entry): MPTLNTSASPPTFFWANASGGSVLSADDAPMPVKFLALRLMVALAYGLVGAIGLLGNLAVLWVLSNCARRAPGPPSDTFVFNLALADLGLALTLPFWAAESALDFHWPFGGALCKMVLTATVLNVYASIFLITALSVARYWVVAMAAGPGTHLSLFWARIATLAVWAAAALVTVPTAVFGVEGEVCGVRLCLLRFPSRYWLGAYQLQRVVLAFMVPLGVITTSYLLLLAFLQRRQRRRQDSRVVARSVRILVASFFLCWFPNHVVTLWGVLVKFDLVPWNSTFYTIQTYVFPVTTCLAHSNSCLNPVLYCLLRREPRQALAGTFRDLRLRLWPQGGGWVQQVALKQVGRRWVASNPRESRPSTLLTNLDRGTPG

Consider `O=C(CCc1ccc2n1[B-](F)(F)[N+]1=C(c3ccc[nH]3)C=CC1=C2)NCc1ccc(C(=O)NCCOCCC(=O)N[C@@H]2CC[C@@]3(O)[C@H]4Cc5ccc(O)c6c5[C@@]3(CCN4CC3CC3)[C@H]2O6)cc1` [Naltrexone-3-NB590], for which the “NanoBRET Fold Response” value stood at 0.98 (RXFP4, tracer 0.1μM) and 0.98 (RXFP4, tracer 1μM).

Take `CN1CCN(C2=Nc3cc(Cl)ccc3N(CC(=O)NCCOCCOCCOCCOCCNC(=O)CCc3ccc4n3[B-](F)(F)[N+]3=C(c5ccc[nH]5)C=CC3=C4)c3ccccc32)CC1` [Clozapine-c-2-NB590]: the “NanoBRET Fold Response” value came out at 0.96 (RXFP4, 0.1μM tracer) and 1.04 (RXFP4, 1μM tracer). In the case of `O=C(CCOCCOCCOCCOCCNC(=O)CCc1ccc2n1[B-](F)(F)[N+]1=C(c3ccc[nH]3)C=CC1=C2)NCCCN1CCN(C2=Nc3cc(Cl)ccc3Nc3ccccc32)CC1` [Clozapine-a-2-NB590], the “NanoBRET Fold Response” value runs as follows: (RXFP4, 0.1μM tracer) 1.10; (RXFP4, 1μM tracer) 1.10. Turning to `CCOC(=O)c1cc(C#N)c(N2CCC(C(=O)NS(=O)(=O)Cc3ccccc3/C=C/C(=O)NCCNC(=O)CCc3ccc4n3[B-](F)(F)[N+]3=C(c5ccc[nH]5)C=CC3=C4)CC2)nc1C` [AZD1283-1-NB590], the “NanoBRET Fold Response” value (RXFP4, 0.1μM) amounted to 1.02 and the “NanoBRET Fold Response” value (RXFP4, 1μM) is 1.09. Turning to `COc1ccc2[nH]c(-c3ccc(CNC(=O)CCOCCOCCOCCOCCNC(=O)CCc4ccc5n4[B-](F)(F)[N+]4=C(c6ccc[nH]6)C=CC4=C5)cc3)c(CCNC(C)=O)c2n1` [AzomelatoninICO9-2-NB590], the “NanoBRET Fold Response” value by setting is: (0.1μM tracer) 0.94; (1μM tracer) 0.96.

Turning to `CCCn1c(=O)c2[nH]c(-c3ccc(OCC(=O)NCCNC(=O)CCOCCNC(=O)c4ccc(CNC(=O)CCc5ccc6n5[B-](F)(F)[N+]5=C(c7ccc[nH]7)C=CC5=C6)cc4)cc3)nc2n(CCC)c1=O` [XAC-3-NB590], the “NanoBRET Fold Response” value (RXFP4, tracer 0.1μM) worked out at 1.00 and the “NanoBRET Fold Response” value (RXFP4, tracer 1μM) amounted to 0.96. As for `COc1ccccc1N1CCN(CCCCN2C(=O)c3ccc(CNC(=O)CCOCCNC(=O)c4ccc(CNC(=O)CCc5ccc6n5[B-](F)(F)[N+]5=C(c7ccc[nH]7)C=CC5=C6)cc4)cc3C2=O)CC1` [NAN-190-3-NB590], the “NanoBRET Fold Response” value (RXFP4, tracer 0.1μM) came to 0.93 and the “NanoBRET Fold Response” value (RXFP4, tracer 1μM) stood at 0.90.

As for `O=C(CCc1ccc2n1[B-](F)(F)[N+]1=C(c3ccc[nH]3)C=CC1=C2)NCc1ccc(C(=O)NCCOCCOCCNCC(O)COc2cccc3ccccc23)cc1` (stereo not drawn) [Propranolol-3-NB590], the “NanoBRET Fold Response” value is, setting by setting: (RXFP4, 0.1μM) 1.02; (RXFP4, 1μM) 1.05.

For `COc1ccc2c(n1)c(CCNC(C)=O)cn2CCNC(=O)CCc1ccc2n1[B-](F)(F)[N+]1=C(c3ccc[nH]3)C=CC1=C2` [Azamelatonin-1-NB590], the “NanoBRET Fold Response” value runs as follows: (0.1μM tracer) 0.73; (1μM tracer) 1.04.

Consider `O=C(CCOCCOCCOCCOCCNC(=O)CCc1ccc2n1[B-](F)(F)[N+]1=C(c3ccc[nH]3)C=CC1=C2)NCCCN1CCN(C2=Nc3ccccc3Oc3ccc(Cl)cc32)CC1` [Loxapine-a-2-NB590], for which the “NanoBRET Fold Response” value (RXFP4, tracer 0.1μM) is recorded as 1.01 and the “NanoBRET Fold Response” value (RXFP4, tracer 1μM) came out at 1.21.

As to `COc1ccccc1N1CCN(CCCCN2C(=O)c3ccc(CNC(=O)CCOCCOCCOCCOCCNC(=O)CCc4ccc5n4[B-](F)(F)[N+]4=C(c6ccc[nH]6)C=CC4=C5)cc3C2=O)CC1` [NAN-190-2-NB590], where the note is “RXFP4, tracer 1μM”, the “NanoBRET Fold Response” value stood at 0.97.

As for `CC(C)N(CC[C@H](c1ccccc1)c1cc(CCNC(=O)c2ccc(CNC(=O)CCc3ccc4n3[B-](F)(F)[N+]3=C(c5ccc[nH]5)C=CC3=C4)cc2)ccc1O)C(C)C` [Tolterodine-BZ-NB590], the “NanoBRET Fold Response” value runs as follows: (RXFP4, tracer 0.1μM) 1.08; (RXFP4, tracer 1μM) 0.98. `O=C(CCc1ccc2n1[B-](F)(F)[N+]1=C(c3ccc[nH]3)C=CC1=C2)NCCOCCOCCNC(=O)OCCOCCN1CCN(C2=Nc3ccccc3Sc3ccccc32)CC1` [Quetiapine-a-2-NB590]: the “NanoBRET Fold Response” value (RXFP4, tracer 0.1μM) is reported as 1.02 and the “NanoBRET Fold Response” value (RXFP4, tracer 1μM) is 0.68. For `CN1CCN(C2=Nc3cc(Cl)ccc3Nc3ccc(CNC(=O)CCOCCOCCOCCOCCNC(=O)CCc4ccc5n4[B-](F)(F)[N+]4=C(c6ccc[nH]6)C=CC4=C5)cc32)CC1` [Clozapine-b-2-NB590], the “NanoBRET Fold Response” value came to 0.97 (RXFP4, 0.1μM tracer) and 1.01 (RXFP4, 1μM tracer). As for `CC(C)N(CC[C@H](c1ccccc1)c1cc(CCNC(=O)CCOCCOCCOCCOCCNC(=O)CCc2ccc3n2[B-](F)(F)[N+]2=C(c4ccc[nH]4)C=CC2=C3)ccc1O)C(C)C` [Tolterodine-2-NB590], the “NanoBRET Fold Response” value is, setting by setting: (RXFP4, tracer 0.1μM) 0.96; (RXFP4, tracer 1μM) 1.06. As to `CN(C)CCC=C1c2ccccc2CCc2ccc(C(=O)NCCNC(=O)CCOCCOCCOCCOCCNC(=O)CCc3ccc4n3[B-](F)(F)[N+]3=C(c5ccc[nH]5)C=CC3=C4)cc21` [Amitriptyline-a-2-NB590], the “NanoBRET Fold Response” value by setting is: (tracer at 0.1μM) 1.05; (tracer at 1μM) 1.03. In the case of `Cc1cc2c(s1)Nc1ccccc1N=C2N1CCN(CCCNC(=O)CCOCCOCCOCCOCCNC(=O)CCc2ccc3n2[B-](F)(F)[N+]2=C(c4ccc[nH]4)C=CC2=C3)CC1` [Olanzapine-a-2-NB590], the “NanoBRET Fold Response” value reads like this: (RXFP4, tracer 0.1μM) 0.95; (RXFP4, tracer 1μM) 0.91.

In the case of `N#CN=C(NCCCOc1cccc(CN2CCCCC2)c1)NCCNC(=O)CCOCCOCCOCCOCCNC(=O)CCc1ccc2n1[B-](F)(F)[N+]1=C(c3ccc[nH]3)C=CC1=C2` [Aminopotentidine-2-NB590], the “NanoBRET Fold Response” value runs as follows: (RXFP4, tracer 0.1μM) 1.02; (RXFP4, tracer 1μM) 1.02. Consider `Cc1nc2n(c(=O)c1CCN1CCC(c3noc4cc(F)ccc34)CC1)CCCC2OC(=O)NCCOCCOCCOCCOCCNC(=O)CCc1ccc2n1[B-](F)(F)[N+]1=C(c3ccc[nH]3)C=CC1=C2` (stereo not drawn) [Risperidone-2-NB590], for which the “NanoBRET Fold Response” value worked out at 0.96 (RXFP4, tracer 0.1μM) and 1.10 (RXFP4, tracer 1μM). For the compound `CN(C)CCC=C1c2ccccc2CCc2ccc(C(=O)NCCNC(=O)CCOCCOCCOCCOCCNC(=O)CCc3ccc4n3[B-](F)(F)[N+]3=C(c5ccc[nH]5)C=CC3=C4)cc21` [Amitriptyline-b-2-NB590], the “NanoBRET Fold Response” value came out at 1.07 (tracer at 0.1μM, listed as amitriptyline-b-2-NB590) and 0.89 (tracer at 1μM, listed as amitriptyline-b-2-NB590).
